{"source": "patent US20070010429A1", "about": "“Phospholipid formulations and uses thereof in lung disease detection and treatment” (The Hospital For Sick Children, priority 2005, published 2007)", "key": {"[1]": {"settings": "freeze fracture analysis; cited from earlier work"}, "neonatal rats [2]": {"system": "neonatal rats", "source_text": "Timed-pregnant female Wistar rats and C57/B16 mice were obtained from Charles River (St. Constant, Qc, Canada). All animal protocols were in accordance with Canadian Counsel of Animal Care guidelines and were approved by the Animal Care and Use Committee of the Hospital for Sick Children. Developmental profile: At fetal day 19 and 22 (term=23 days) the pregnant rat was anesthetized and the pups delivered by cesarean section, while postpartum rodents were removed from their mother directly before sacrifice. Dexamethasone treatment: Newborn Wistar rats were injected daily for 4 days with dexamethasone (Sabex, Boucherville, Quebec, Canada) diluted in isotonic saline starting at postnatal day 1 according to previously described protocols (17). Hyperoxia exposure: The oxygen treatment was performed by housing the rat pups with their mother in chambers containing either 21% or 60% oxygen, starting at day 1 until day of lavage (i.e. postnatal day 4, 7, 10 or 14) (18).\nAfter sacrificing the animals, a needle (blunted tip) was inserted through a tracheostomy and the lungs were lavaged with a buffer composed of phosphate-buffered saline augmented with 0.05 mg/ml of 70 kDa dextran-FITC [Molecular probes, Burlington, ON, Canada]. The inert fluorescent marker was included to determine lavage recovery (see FIG. 4e).\nBALF samples were spiked with 1 μg of deuterated dipalmitoyl-PC (16:0/16:0PC) (Avanti polar lipids, Alabaster Ala., USA) as an internal standard, and then extracted (19). Lipids were analyzed using an API4000 mass spectrometer [MDS SCIEX, Concord, Ontario, Canada) (20).\nTo determine the nature of this relationship, BALF samples were examined from two rat models of diminished alveolarization. The two models employed were postnatal exposure to either dexamethasone or 60% oxygen. Postnatal administration of dexamethasone to rats has been described to result in a reduced alveolarization (17, 39-41). In the present study, a high dose, short-term treatment with dexamethasone was used to induce reduced alveolarization in the animal.\nNeonatal hyperoxia of mice and rats may also be used to induce diminished alveolarization (18, 42-44)."}, "neonatal rats [3]": {"system": "neonatal rats", "settings": "treated rats; day 10 control rats 9.0±0.4 microns", "protocol": "BALF samples, containing 50 nM of PC, were extracted and lipids were dried under nitrogen. Lipid samples were then reconstituted in 1 ml of saline at 37° C. followed by bath sonication. Following one freeze-thaw cycle the vesicle size was determined by dynamic light scattering (21) using a Malvern Mastersizer X (Malvern Instruments Ltd., Worcestershire, United Kingdom).\nTo even further characterize this relationship, light scattering analysis was performed on liposomes formed from total lipids extracted from BALF."}, "newborn Wistar rats": {"system": "newborn Wistar rats", "settings": "high dose, short-term dexamethasone, age of 14 days; cited from earlier work"}}, "note": "Read-outs that look alike come from different tables or passages of the source."}
{"smiles": "CCCCCCCCCCCCCCCC(=O)OC[C@H](COP(=O)([O-])OCC[N+](C)(C)C)OC(=O)CCCCCCCCCCCCCCC", "note": "[16:0/16:0, Dipalmitoyl Phosphatidylcholine]", "values": [{"measurement": "liposome radius compared to palmitoylmyristoyl-PC (16:0/14:0PC) liposomes", "setting": "[1]", "result": "three-fold greater radius"}]}
{"smiles": "O=O", "note": "[60% oxygen, oxygen]", "values": [{"measurement": "total PC in BALF", "setting": "neonatal rats [2]; 60% oxygen from day 1, postnatal day 10", "result": "significant reduction"}, {"measurement": "total PC in BALF", "setting": "neonatal rats [2]; 60% oxygen from day 1, postnatal day 14", "result": "no longer significantly different"}, {"measurement": "palmitoylmyristoyl-PC (16:0/14:0PC) in BALF", "setting": "neonatal rats [2]; after 14 days of 60% oxygen exposure, only PC species reduced", "result": "significantly reduced"}, {"measurement": "dipalmitoyl-PC (16:0/16:0PC) content in BALF", "setting": "neonatal rats [2]; rats exposed to 60% oxygen", "result": "reduced"}, {"measurement": "palmitoylmyristoyl-PC (16:0/14:0PC) content in BALF", "setting": "neonatal rats [2]; rats exposed to 60% oxygen", "result": "reduced"}, {"measurement": "palmitoylpalmitoleoyl-PC (16:0/16:1PC) content in BALF", "setting": "neonatal rats [2]; rats exposed to 60% oxygen", "result": "reduced"}, {"measurement": "average particle size of liposomes formed from BALF lipids", "setting": "neonatal rats [3]", "result": "12.6±0.6", "unit": "microns"}]}
{"smiles": "C[C@@H]1C[C@H]2[C@@H]3CCC4=CC(=O)C=C[C@]4(C)[C@@]3(F)[C@@H](O)C[C@]2(C)[C@@]1(O)C(=O)CO", "note": "[dexamethasone, reference compound]", "values": [{"measurement": "average particle size of liposomes formed from BALF lipids", "setting": "neonatal rats [3]", "result": "13.2±0.7", "unit": "microns"}, {"measurement": "parenchymal complexity / lung alveoli compared to controls", "setting": "newborn Wistar rats", "result": "significant decrease in parenchymal complexity"}]}
